Here are results for one molecule from patent publication US20260216368A1, “BIS-ESTER AND AMIDE CATIONIC LIPIDS” (SANOFI PASTEUR INC., priority 2022, published 2026).

The structures appear in SMILES notation.

This test relates to Human erythropoietin (hEPO) levels in sera. The test can be described thus: Delivery of hEPO mRNA by intramuscular administration of lipid nanoparticles; serum hEPO by ELISA. The test is classed as in vivo, Mouse. The note with it: third occasion; serum, 6 hours post dose; 0.1 μg/animal hEPO mRNA LNP, IM, mice, n=4. Here is the method: WO2022/099003 A1 describes an in vivo assay for intramuscular administration (e.g. on page 46, paragraph [00206]). Further details of the intramuscular experiment performed in this application are provided below.
Treatment Regimen: On Day 1, animals from Groups 1-8 were dosed via intramuscular injection while under light isoflurane anesthesia according to the study design table above. Animals in Groups 2-8 were injected with EPO in the right leg only. Group 1 animals received saline control.
Interim Sample Collections: Interim whole blood (~50 μL) was collected by tail snip or saphenous vein at 6 hours post dose administration (±5%). Blood samples were collected into serum separator tubes, allowed to clot at room temperature for at least 10 minutes, centrifuged at ambient temperature at minimum 1000 g for 10 minutes and the serum was extracted. All serum samples were stored at nominally −70° C. until analysis hEPO by the Testing Facility. The results of the EPO analysis were included in the Data Submission.
Terminal Blood Collections: Whole blood was collected via cardiac puncture into serum separator tube, allowed to clot at room temperature for at least 10 minutes, centrifuged at ambient temperature at minimum 1000 g for 10 minutes and the serum was extracted. Serum samples were stored at nominally −70° C. until analyzed for hEPO by the Test Facility.
ELISA Assay: Human erythropoietin (hEPO) levels in sera samples were determined by ELISA kit (R&D systems, Cat #DEP-00) according to the manufactory instruction and the results were included in the Data Submission. The “shaker” protocol was used. The serum samples were diluted between 1:40 and 1:100.
The ability of the further exemplary lipid nanoparticles in Example 54 to deliver hEPO mRNA by intramuscular administration was tested in accordance with the experimental protocol set out in Example 52.
Background: An ELISA detects its analyte on a solid surface through an enzyme-linked reagent.

On to `CCCCCCCCCCC(O)CN(CCCOC(=O)[C@H](Cc1ccc(O)cc1)NC(=O)CCCN(CC(O)CCCCCCCCCC)CC(O)CCCCCCCCCC)CC(O)CCCCCCCCCC` (stereo partly drawn) [Compound XCIX, 3-(bis(2-hydroxydodecyl)amino)propyl (4-(bis(2-hydroxydodecyl)amino)butanoyl)-L-tyrosinate], for which the “hEPO 6 Hr (ng/mL) Mean” value was found to be 38.1 ng/mL.
